Source: paper PMC7840129, “Structural basis for heme-dependent NCoR binding to the transcriptional repressor REV-ERBβ” (Science Advances, 2021)

Target: T1, Apo REV-ERBβ LBD (Homo sapiens, UniProt Q14995)
T1 construct: The human REV-ERBβ LBD (residues 381 to 579) was previously cloned; 6xHis with 3C protease cleavage site (N, cleaved yes); made in house; host or cells: E. coli BL21(DE3)
T1 sequence (Q14995 381-579): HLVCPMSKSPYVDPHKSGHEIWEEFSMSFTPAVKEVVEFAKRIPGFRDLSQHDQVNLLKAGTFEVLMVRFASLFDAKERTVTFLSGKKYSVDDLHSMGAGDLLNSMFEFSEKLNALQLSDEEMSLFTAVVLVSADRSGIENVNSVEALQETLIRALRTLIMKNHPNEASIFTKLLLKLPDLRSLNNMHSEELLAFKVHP
Experiment: ITC, NCoR ID peptides with apo REV-ERBβ LBD
Assay type: binding
Description: The human REV-ERBβ LBD (residues 381 to 579) was previously cloned into the pET46 vector ([18]). The mouse NCoR RID (residues 1942 to 2208 in the X50 splice variant), which has 87% sequence identity to human NCoR RID (100% sequence identity in the ID motifs), was previously cloned into the pET32 vector ([29]). NCoR RID mutants were generated by site-directed mutagenesis: The ID1 CoRNR box motif was mutated from […] to […] (ΔID1 and ΔID1ΔID2), and the ID2 CoRNR box motif was mutated from LEDIIRKAL to TEDTTRKAL (ΔID2 and ΔID1ΔID2), as these mutations were previously reported to disrupt CoRNR box binding ([10], [30]). Heme (Sigma-Aldrich, no. 51280) was prepared either as a 1 mM stock in dimethyl sulfoxide (DMSO) stored at 4°C or 50 mM stock in 0.2 M NaOH (solutions prepared in 0.2 M NaOH were always made fresh immediately before the experiment), where indicated. […] Human embryonic kidney (HEK) 293T cells (American Type Culture Collection, no. CRL-11268) were cultured in Dulbecco’s modified eagle medium (DMEM) supplemented with 10% fetal bovine serum, 2 mM L-glutamine, and 1% penicillin-streptomycin at 37°C and 5% CO2 under standard culture conditions. The pcDNA3.1^+ expression vector containing full-length human REV-ERBβ ([31]) and the pGL3-Bmal1-luciferase construct containing the Bmal1 promoter (−816 to +99 of the mouse Bmal1 promoter region) were used in HEK293T cell transfections. Site-directed mutagenesis was performed to mutate the proximal RORE (pRORE mutant), distal RORE (dRORE mutant), or both (p/dRORE mutant) in the pGL3-Bmal1-luciferase construct based on a previous study ([6]) where the ROREs were mutated to disrupt REV-ERBα activity.
Human REV-ERBβ LBD was expressed in BL21(DE3) Escherichia coli cells with an N-terminal hexahistidine (6xHis) tag separated by a 3C protease cleavage site. Expression was performed using auto-induction media: Cells were grown at 37°C for 5 hours, 30°C for 1 hour, and 18°C for 16 hours before harvesting by centrifugation. Pellets were resuspended in potassium phosphate lysis buffer [40 mM potassium phosphate (pH 7.4), 500 mM KCl, 15 mM imidazole, and 1 mM dithiothreitol (DTT)] supplemented with leupeptin, pepstatin A, lysozyme, and deoxyribonuclease (DNase) I and sonicated on ice. […] A 5-ml aliquot of 6xHis-tagged protein was purified by size exclusion chromatography using a Superdex 75 column equilibrated in time-resolved fluorescence energy transfer (TR-FRET) assay buffer [20 mM potassium phosphate (pH 7.4), 50 mM KCl, and 0.5 mM EDTA]; purified aliquots were stored at −80°C for TR-FRET assays. To cleave the 6xHis tag from the remaining protein, it was incubated overnight with 3C protease (generated in-house) via dialysis; then, protein was reloaded onto the HisTrap columns, and the flow-through was collected. Last, aggregates were removed by size exclusion chromatography using a Superdex 75 column and Hepes gel filtration buffer [20 mM Hepes (pH 7.4), 50 mM KCl, and 0.5 mM EDTA]. Greater than 95% purity was confirmed by SDS-PAGE. Protein was aliquoted and stored at −80°C.
ITC experiments were performed using a MicroCal iTC200. All experiments were solvent-matched and contained 0.1% DMSO (peptide vehicle) and 0.2% 0.2 M solution of NaOH (heme vehicle) final concentrations. NITPIC software ([37]) was used to calculate baselines and integrate curves and prepare experimental data for fitting in SEDPHAT, which was used to generate final binding affinity and thermodynamic parameter measurements ([38]).Final figures were exported to GUSSI for publication-quality figure preparation ([39]).
NCoR ID1 and NCoR ID2 peptides were prepared at 50 μM in assay buffer [20 mM Hepes (pH 7.4), 50 mM KCl, 0.5 mM EDTA, and 5 mM tris(2-carboxyethyl)phosphine (TCEP)], and REV-ERBβ LBD was prepared at 500 μM. […]

[1] = ID1 peptide, pH 7.4, 25°C, 95% CI
[2] = ID2 peptide, 25°C, fitted estimate due to low c value, 95% CI n.d.

Compound | affinity of apo LBD for peptide (in words) | thermodynamic profile of peptide binding (in words), apo | ΔG, free energy of binding [1] [kcal/mol] | ΔH, enthalpy of binding [1] [kcal/mol] | TΔS (ID1 peptide, pH 7.4, T constant at 25°C, 95% CI) [kcal/mol] | TΔS [2] [kcal/mol] | ΔG, free energy of binding [2] [kcal/mol] | ΔH, enthalpy of binding [2] [kcal/mol]
Ac-RTHRLITLADHICQIITQDFARN-NH2 [NCoR ID1 peptide] | high affinity | enthalpically driven and exothermic | -8.6 | -7.7 | 0.88 | – | – | –
CC[C@H](C)[C@H](NC(=O)[C@H](CC(=O)O)NC(=O)[C@H](CCC(=O)O)NC(=O)[C@H](CC(C)C)NC(=O)CNC(=O)[C@H](CC(C)C)NC(=O)[C@H](CC(N)=O)NC(=O)[C@H](CO)NC(=O)[C@H](C)NC(=O)[C@@H]1CCCN1C(=O)[C@H](CC(=O)O)NC(C)=O)C(=O)N[C@H](C(=O)N[C@@H](CCCNC(=N)N)C(=O)N[C@@H](CCCCN)C(=O)N[C@@H](C)C(=O)N[C@@H](CC(C)C)C(=O)N[C@@H](CCSC)C(=O)NCC(=O)N[C@@H](CO)C(=O)N[C@@H](Cc1ccccc1)C(=O)N[C@@H](CC(=O)O)C(=O)N[C@@H](CC(=O)O)C(=O)N[C@@H](CCCCN)C(N)=O)[C@@H](C)CC [NCoR ID2 peptide] | low affinity | enthalpically driven and exothermic | – | – | – | -4.2 | -5.6 | -9.7
